# Results reported in ChEMBL document CHEMBL3885881, “DrugMatrix”.
# Species on record: Rattus norvegicus
# Experiment: DrugMatrix - Regimen: Daily Repeat
# Assay type: toxicity, organism-based, Sprague-Dawley
# Set-up: regimen Daily Repeat, gender Male, age 6-8 weeks
# Conditions: in vivo, po, […], route oral GAVAGE, vehicle 100 % WATER; for ALANINE AMINOTRANSFERASE / ALBUMIN / ALKALINE PHOSPHATASE / ASPARTATE AMINOTRANSFERASE / BLOOD UREA NITROGEN / CARBON DIOXIDE / CHLORIDE / CHOLESTEROL / CREATINE PHOSPHOKINASE / CREATININE / GLUCOSE / LACTATE DEHYDROGENASE / LIPASE / PHOSPHORUS / POTASSIUM / SODIUM / TOTAL BILIRUBIN / TOTAL PROTEIN / URIC ACID: tissue Plasma; for ABSOLUTE BASOPHIL / ABSOLUTE EOSINOPHIL / ABSOLUTE LYMPHOCYTE / ABSOLUTE MONOCYTE / ABSOLUTE SEGMENTED NEUTROPHIL / BASOPHIL / EOSINOPHIL / ERYTHROCYTE COUNT / HEMATOCRIT / HEMOGLOBIN / LEUKOCYTE COUNT / LYMPHOCYTE / MEAN CORPUSCULAR HEMOGLOBIN / MEAN CORPUSCULAR HEMOGLOBIN CONCENTRATION / MEAN CORPUSCULAR VOLUME / MONOCYTE / NEUTROPHIL / NUCLEATED RED BLOOD CELLS / PLATELET COUNT: tissue Blood
# [1] = 72 h, dose 0.025 mg/Kg, dose level Low, time 3 day
# [2] = 72 h, dose 0.25 mg/Kg, dose level High, time 3 day
# [3] = 120 h, dose 0.025 mg/Kg, dose level Low, time 5 day
# [4] = 120 h, dose 0.25 mg/Kg, dose level High, time 5 day
structure (smiles),measurement,setting,value
C[C@@H]1C[C@@H]([C@H](O)CC2CC(=O)NC(=O)C2)C(=O)[C@@H](C)C1 [CYCLOHEXIMIDE],ALANINE AMINOTRANSFERASE,[1],59.67 u/L
same,ALBUMIN,[1],4.1 G/DL
same,ALKALINE PHOSPHATASE,[1],369.67 u/L
same,ASPARTATE AMINOTRANSFERASE,[1],107.33 u/L
same,BLOOD UREA NITROGEN,[1],15.67 mg/dL
same,CARBON DIOXIDE,[1],31 mmol/L
same,CHLORIDE,[1],102 MEQ/L
same,CHOLESTEROL,[1],69 mg/dL
same,CREATINE PHOSPHOKINASE,[1],1055 u/L
same,CREATININE,[1],0.22 mg/dL
same,GLUCOSE,[1],164 mg/dL
same,LACTATE DEHYDROGENASE,[1],240.33 u/L
same,LIPASE,[1],9 u/L
same,PHOSPHORUS,[1],12.27 mg/dL
same,POTASSIUM,[1],6.52 MEQ/L
same,SODIUM,[1],142.17 MEQ/L
same,TOTAL BILIRUBIN,[1],0.23 mg/dL
same,TOTAL PROTEIN,[1],5.63 G/DL
same,URIC ACID,[1],1.8 mg/dL
same,ALANINE AMINOTRANSFERASE,[2],45 u/L
same,ALBUMIN,[2],3.43 G/DL
same,ALKALINE PHOSPHATASE,[2],376.67 u/L
same,ASPARTATE AMINOTRANSFERASE,[2],77 u/L
same,BLOOD UREA NITROGEN,[2],14.33 mg/dL
same,CARBON DIOXIDE,[2],34.33 mmol/L
same,CHLORIDE,[2],101.33 MEQ/L
same,CHOLESTEROL,[2],48.67 mg/dL
same,CREATINE PHOSPHOKINASE,[2],345.33 u/L
same,CREATININE,[2],0.17 mg/dL
same,GLUCOSE,[2],154.33 mg/dL
same,LACTATE DEHYDROGENASE,[2],99 u/L
same,LIPASE,[2],8 u/L
same,PHOSPHORUS,[2],12.1 mg/dL
same,POTASSIUM,[2],7.04 MEQ/L
same,SODIUM,[2],141.27 MEQ/L
same,TOTAL BILIRUBIN,[2],0.23 mg/dL
same,TOTAL PROTEIN,[2],4.67 G/DL
same,URIC ACID,[2],1.33 mg/dL
same,ABSOLUTE BASOPHIL,[3],0 CELLS/uL
same,ABSOLUTE EOSINOPHIL,[3],0 CELLS/uL
same,ABSOLUTE LYMPHOCYTE,[3],7936.67 CELLS/uL
same,ABSOLUTE MONOCYTE,[3],68.67 CELLS/uL
same,ABSOLUTE SEGMENTED NEUTROPHIL,[3],628 CELLS/uL
same,BASOPHIL,[3],0%
same,EOSINOPHIL,[3],0%
same,ERYTHROCYTE COUNT,[3],5.73 x10E6/uL
same,HEMATOCRIT,[3],34.33%
same,HEMOGLOBIN,[3],13.1 G/DL
same,LEUKOCYTE COUNT,[3],8.63 x10E3/uL
same,LYMPHOCYTE,[3],91.67%
same,MEAN CORPUSCULAR HEMOGLOBIN,[3],22.9 pg
same,MEAN CORPUSCULAR HEMOGLOBIN CONCENTRATION,[3],38.13 G/DL
same,MEAN CORPUSCULAR VOLUME,[3],60.1 fL
same,MONOCYTE,[3],1%
same,NEUTROPHIL,[3],7.33%
same,NUCLEATED RED BLOOD CELLS,[3],0 /100WBC
same,PLATELET COUNT,[3],1317.33 x10E3/uL
same,ABSOLUTE BASOPHIL,[4],0 CELLS/uL
same,ABSOLUTE EOSINOPHIL,[4],26.67 CELLS/uL
same,ABSOLUTE LYMPHOCYTE,[4],7410 CELLS/uL
same,ABSOLUTE MONOCYTE,[4],139.67 CELLS/uL
same,ABSOLUTE SEGMENTED NEUTROPHIL,[4],1057 CELLS/uL
same,BASOPHIL,[4],0%
same,EOSINOPHIL,[4],0.33%
same,ERYTHROCYTE COUNT,[4],5.35 x10E6/uL
same,HEMATOCRIT,[4],32.87%
same,HEMOGLOBIN,[4],12.77 G/DL
same,LEUKOCYTE COUNT,[4],8.63 x10E3/uL
same,LYMPHOCYTE,[4],85%
same,MEAN CORPUSCULAR HEMOGLOBIN,[4],23.83 pg
same,MEAN CORPUSCULAR HEMOGLOBIN CONCENTRATION,[4],38.8 G/DL
same,MEAN CORPUSCULAR VOLUME,[4],61.47 fL
same,MONOCYTE,[4],1.67%
same,NEUTROPHIL,[4],13%
same,NUCLEATED RED BLOOD CELLS,[4],0 /100WBC
same,PLATELET COUNT,[4],1213 x10E3/uL
same,ALANINE AMINOTRANSFERASE,[3],45.33 u/L
same,ALBUMIN,[3],4.03 G/DL
same,ALKALINE PHOSPHATASE,[3],343 u/L
same,ASPARTATE AMINOTRANSFERASE,[3],78 u/L
same,BLOOD UREA NITROGEN,[3],15.33 mg/dL
same,CARBON DIOXIDE,[3],33.33 mmol/L
same,CHLORIDE,[3],102.33 MEQ/L
same,CHOLESTEROL,[3],68.67 mg/dL
same,CREATINE PHOSPHOKINASE,[3],249.67 u/L
same,CREATININE,[3],0.16 mg/dL
same,GLUCOSE,[3],141 mg/dL
same,LACTATE DEHYDROGENASE,[3],124.33 u/L
same,LIPASE,[3],9 u/L
same,PHOSPHORUS,[3],11.4 mg/dL
same,POTASSIUM,[3],5.87 MEQ/L
same,SODIUM,[3],146.43 MEQ/L
same,TOTAL BILIRUBIN,[3],0.1 mg/dL
same,TOTAL PROTEIN,[3],5.83 G/DL
same,URIC ACID,[3],0.73 mg/dL
same,ALANINE AMINOTRANSFERASE,[4],54.67 u/L
same,ALBUMIN,[4],3.6 G/DL
same,ALKALINE PHOSPHATASE,[4],291.33 u/L
same,ASPARTATE AMINOTRANSFERASE,[4],78 u/L
same,BLOOD UREA NITROGEN,[4],16 mg/dL
same,CARBON DIOXIDE,[4],35.33 mmol/L
same,CHLORIDE,[4],101.5 MEQ/L
same,CHOLESTEROL,[4],65 mg/dL
same,CREATINE PHOSPHOKINASE,[4],253.67 u/L
same,CREATININE,[4],0.15 mg/dL
same,GLUCOSE,[4],135 mg/dL
same,LACTATE DEHYDROGENASE,[4],109 u/L
same,LIPASE,[4],9 u/L
same,PHOSPHORUS,[4],11.9 mg/dL
same,POTASSIUM,[4],6.52 MEQ/L
same,SODIUM,[4],143.55 MEQ/L
same,TOTAL BILIRUBIN,[4],0.1 mg/dL
same,TOTAL PROTEIN,[4],5.03 G/DL
same,URIC ACID,[4],0.73 mg/dL
